Results: US20130324609A1, “DEPRESSION DISORDER THERAPEUTICS WITH CREATINE ANALOGS” (UNIVERSITY OF UTAH RESEARCH FOUNDATION, priority 2010, published 2013)

Tests used:
Format in all cases: in vivo, human
[1] = tested on: brain phosphorus metabolites (PCr, b-NTP, pH); assay: 31P-MRS brain scans of phosphorus metabolites at baseline and after 8 weeks of creatine
Method: Healthy control female adolescents were recruited for comparison ^31P-MRS scans through IRB-approved advertising. Following informed consent, the K-SADS-PL and CDRS-R were administered to establish the absence of psychiatric disorder(s) or depressive symptoms.
(§1) Participants with depression were treated with fixed-dose Creapure® brand of creatine monohydrate (AlzChem LLC, Trostberg, Germany) 4 grams by mouth daily for 8 weeks. At each study visit, the following rating scales were administered: the CDRS ? R, the Clinical Global Impressions scale (Guy 1976) and the Columbia-Suicide Severity Rating Scale (C-SSRS) (Posner 2010). Adverse events were recorded at each study visit. Change in CDRS-R raw score was the primary outcome measure, with C-SSRS results and treatment-emergent adverse events serving as secondary clinical outcomes. ^31P-MRS brain scans were acquired with a Siemens 3 Tesla MRS scanner (Siemens AG, Munich, Germany) that is FDA-approved for clinical use. Two dimensional chemical shift imaging free induction decay (2D CSI FID) pulse sequence with an Fourier voxel resolution of 25×25×25 mm3, Field of View (FOV)=200×200×25 mm3, TR/TE=3000/2.3 ms, vector size=1024, bandwidth=2500 Hz, data collection time=11.2 minutes and the number of averages=24 was implemented to collect 2D CSI FID data using a ^31P/1H double-tuned volume head coil (Clinical MR Solutions LLC, Brookfield, Wis., USA). The proton channel was used for localization, high-resolution anatomic image acquisition and shimming Shimming was performed over the excited volume. 3D high-resolution images used for localization of CSI data were collected using inversion recovery magnetization prepared rapid gradient echo (MP-RAGE) pulse sequence with isotropic 1 mm3 resolution. The imaging parameters were as follows: TR/TE=2000/3.37 ms, FOV=256×192×144 mm3, and matrix size=256×1 92×144, for a total acquisition time of 4.8 minutes. Participants were instructed during the informed consent process, and again before entering the scanner, that they could discontinue scanning at any point if they experienced discomfort (e.g. claustrophobic anxiety). Non-study personnel trained in research patient advocacy attended each scanning session. The study protocol included two ^31P-MRS scans: one at baseline and a follow-up scan 8 weeks later.
^31P MRS data were analyzed using jMRUI software (jMRUI version 4.0, European Community). A Hamming filter was applied to reduce signal contamination from neighbouring voxels before performing 2D Fast Fourier Transform (FFT) on the raw data. Nine voxel signals from a slice with a thickness of 25 mm located at the corpus callosum, anterior commissure and posterior commissure were summed after 2D FFT. Each voxel FID was apodized with a 10 Hz exponential line broadening before zero filling and FFT. The zero-order and first-order phase correction was performed in all spectrums.
We calculated the signal amplitudes for individual metabolites using AMARES (Advanced Method for Accurate, Robust and Efficient Spectral fitting of MRS data), which is a non-linear, time domain fitting algorithm within the jMRUI software application. The estimated amplitudes of phosphorus metabolites are reported with respect to the total ^31P or beta-NTP amplitude within the time domain signals. The ^31P MRS signal amplitude for each metabolite is directly related to the integrated area under the modeled spectrum in the frequency domain.
The depressed participants' ^31P-MRS brain scans were performed at baseline (prior to the first dose of creatine) and repeated at the conclusion of treatment. We enrolled and acquired baseline scans from ten healthy female adolescent controls; six agreed to return eight weeks later for a second scan. Statistical analyses were performed using JMP 8 (SAS Inc., Cary, N.C. USA). Because this was an open-label pilot study, all analyses were considered exploratory and no correction for multiple hypothesis testing was applied.

[2] = Adverse events, vital signs and laboratory tests during creatine treatment
From the text: (§2) Diagnoses were established with the Schedule for Affective Disorders and Schizophrenia for School-Age Children-Present and Lifetime Version (K-SADS-PL) (Kaufman et al. 1997). A complete blood count, metabolic panel, lipid profile, thyroid stimulating hormone, urinalysis and urine microalbumin were obtained to establish that participants were in generally good health, and to rule out the presence of undiagnosed medical conditions. The laboratory studies were repeated at the conclusion of treatment, to prospectively identify any abnormalities associated with creatine administration.
as §1
Participants' vital signs were recorded at each study visit. […] Although not measured systematically, participant and parent acceptance of creatine as a treatment intervention appeared good, and there were no premature terminations due to concerns about the study drug.

[3] = tested on: suicidality in female adolescents with MDD; assay: Columbia-Suicide Severity Rating Scale (C-SSRS) monitoring during creatine treatment; details: for C-SSRS During Treatment With Creatine (Weeks): monohydrate
Method: as §1
One participant reported no history of suicidal thoughts or behavior, but the others each endorsed significant histories of suicidality, indicating the severity and chronicity of the participants. Three of the participants had attempted suicide between 5 months and 5 years prior to study entry; at intake, four participants reported suicidal ideation in the 2 weeks prior to their baseline visit. During the treatment phase of the study, two participants reported no suicidality. Three participants reported suicidal ideation as treatment began, which lasted between 2 and 6 weeks. […]

[4] = tested on: females between 13-18 years of age with a primary diagnosis of MDD, fluoxetine-treated (SSRI-resistant depression); assay: Open-label adjunctive creatine study: Children's Depression Rating Scale-Revised (CDRS-R) raw score
Method: Approval for the study was obtained from the University of Utah Institutional Review Board (IRB). Informed consent consisted of written parental permission as well as written assent from participants. The study was conducted under U.S. Food and Drug Administration (FDA) Investigational New Drug Application #104,586. An external Data Safety and Monitoring Board vested with authority to halt the trial was established, and the study was conducted in accordance of the principles of Good Clinical Practice (GCP).
Participants were recruited through clinician referrals and IRB-approved advertising. Consecutive patients who met inclusion criteria were enrolled. Inclusion criteria included the following: females between 13-18 years of age with a primary diagnosis of MDD and depressive symptoms persisting for >2 weeks at baseline; fluoxetine treatment for >8 weeks with >4 weeks at a dose of >40 mg/day (if doses higher than 20 mg/day were not tolerated, participants could meet inclusion criteria by taking fluoxetine 20 mg/day for >8 weeks); and a current Children's Depression Rating Scale-Revised (CDRS-R) (Poznanski and Mokros 1996) raw score>40. Consistent with the preliminary nature of the study, few exclusion criteria were applied. For example, no restrictions were placed on concomitant medications or psychotherapy. The study's exclusion criteria were: pre-existing renal disease, proteinuria or microalbuminuria at baseline; contraindication to magnetic resonance scanning (e.g. ferromagnetic implants or claustrophobia); primary diagnosis other than MDD; active psychotic symptoms; high risk for suicidal behavior; positive pregnancy test; active alcohol or drug addiction; known or suspected mental retardation; and unstable medical condition.
as §2
as §1, with “The imaging parameters were as follows: TR/TE=2000/3.37 ms, FOV=256×192×144 mm3, and matrix size=256×1 92×144, for a total acquisition time of 4.8 minutes. Participants were instructed during the informed consent process, and again before entering the scanner, that they could discontinue scanning at any point if they experienced discomfort (e.g. claustrophobic anxiety). Non-study personnel trained in research patient advocacy attended each scanning session. The study protocol included two ^31P-MRS scans: one at baseline and a follow-up scan 8 weeks later.” left out

[5] = entry vs week 8, creatine 4 g daily adjunctive to fluoxetine, n=5

CN(CC(=O)O)C(=N)N.O [creatine, creatine monohydrate]
PCr-TP, Mean 8 Weeks ([1]; MDD group n=5 after 8 weeks creatine 4 g daily, mean baseline 0.1525, p 0.020 paired t-test): 0.1610 | b-NTP/TP, Mean 8 Weeks ([1]; MDD group n=5 after 8 weeks creatine, mean baseline 0.125, p 0.729): 0.128 | PCr/b-NTP, Mean 8 Weeks ([1]; MDD group n=5 after 8 weeks creatine, mean baseline 1.221, p 0.528): 1.270 | pH, Mean 8 Weeks ([1]; MDD group n=5 after 8 weeks creatine, mean baseline 7.059, p 0.648): 7.071 | change in mean PCr/b-NTP ratio ([1]; following 8 weeks of treatment): no change | change in mean b-NTP ([1]; following 8 weeks of treatment): no change | change in mean pH ([1]; following 8 weeks of treatment): no change | change in mean PCr ([1]; following 8 weeks of treatment, p=0.020, paired t-test, 2-tailed): significant increase | Serious Adverse Events (SAEs) ([2]; in vivo): no Serious Adverse Events | changes in weight, blood pressure or heart rate ([2]; in vivo): No statistically significant changes | course of adverse events ([2]; in vivo): self-limited | microalbuminuria or serum creatinine outside the reference range ([2]; in vivo): No participant developed microalbuminuria or a serum creatinine outside the reference range | tolerability ([2]; in vivo): well tolerated | withdrawal due to treatment emergent adverse effects or lack of efficacy ([2]; in vivo): No participant withdrew | Adverse Events ([2]; participant 3, * = possibly or probably related to study drug, monohydrate): H1N1 influenza* | duration of suicidal ideation reported as treatment began ([3]; in vivo): 2-6 weeks | outcome of participants' suicidal thoughts ([3]; in vivo): resolved during treatment with creatine and did not recur | C-SSRS During Treatment With Creatine (Weeks) ([3]; participant 3, baseline: wish to be dead 1 week prior to study drug): Wish to be Dead (1) | C-SSRS During Treatment With Creatine (Weeks) ([3]; participant 4, baseline: wish to be dead 1 week prior to study entry): Wish to be Dead (1-5) | mean CDRS-R score after eight weeks of treatment ([4]; creatine monohydrate 4 g by mouth daily for 8 weeks, adjunctive to fluoxetine, n=5, mean raw score at entry 69): 30.6 | decrease of mean CDRS-R raw score [4, 5]: 56% | mean reduction in CDRS-R raw score (primary outcome measure) [4, 5]: 38.4 | CDRS-R (Week) ([4]; participant 1, week 8, baseline 82, fluoxetine 40 mg): 24 (8) | CDRS-R (Week) ([4]; participant 2, week 8, baseline 76, fluoxetine 40 mg): 44 (8) | CDRS-R (Week) ([4]; participant 3, week 8, baseline 59, fluoxetine 40 mg): 29 (8) | CDRS-R (Week) ([4]; participant 4, week 8, baseline 66, fluoxetine 20 mg): 23 (8) | CDRS-R (Week) ([4]; participant 5, week 8, baseline 62, fluoxetine 40 mg): 33 (8) | mean CDRS-R raw score at week ten ([4]; two weeks after discontinuation of creatine, compared with week 8): lower than at the conclusion of treatment
